According to PubChem BioAssay (NCI):
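1) Cells in 96-well plates. 2) Compound, 48 h, 5 concentrations. 3) Linear interpolation between surrounding doses. 4) Unreached endpoint = highest concentration. TGI is the concentration that stops growth completely.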

Tests used:
Assay in all cases: inhibition of tumour cell growth, NCI panel, 48 h
786-0 renal = tested on: 786-0 renal
A498 renal = tested on: A498 renal
A549 NSCLC = tested on: A549 NSCLC
ACHN renal = tested on: ACHN renal
CAKI-1 renal = tested on: CAKI-1 renal
CCRF-CEM leukemia = tested on: CCRF-CEM leukemia
COLO 205 colon = tested on: COLO 205 colon
DU-145 prostate = tested on: DU-145 prostate
EKVX NSCLC = tested on: EKVX NSCLC
HCC-2998 colon = tested on: HCC-2998 colon
HCT-116 colon = tested on: HCT-116 colon
HCT-15 colon = tested on: HCT-15 colon
HL-60(TB) leukemia = tested on: HL-60(TB) leukemia
HOP-62 NSCLC = tested on: HOP-62 NSCLC
HOP-92 NSCLC = tested on: HOP-92 NSCLC
HS 578T breast = tested on: HS 578T breast
HT29 colon = tested on: HT29 colon
IGROV1 ovarian = tested on: IGROV1 ovarian
K-562 leukemia = tested on: K-562 leukemia
KM12 colon = tested on: KM12 colon
LOX IMVI melanoma = tested on: LOX IMVI melanoma
M14 melanoma = tested on: M14 melanoma
MALME-3M melanoma = tested on: MALME-3M melanoma
MCF7 breast = tested on: MCF7 breast
MDA-MB-231 breast = tested on: MDA-MB-231 breast
MDA-MB-435 = tested on: MDA-MB-435
MDA-N = tested on: MDA-N
MOLT-4 leukemia = tested on: MOLT-4 leukemia
NCI-H226 lung = tested on: NCI-H226 lung
NCI-H23 lung = tested on: NCI-H23 lung
NCI-H460 lung = tested on: NCI-H460 lung
NCI-H522 lung = tested on: NCI-H522 lung
NCI/ADR-RES ovarian = tested on: NCI/ADR-RES ovarian
OVCAR-3 ovarian = tested on: OVCAR-3 ovarian
OVCAR-4 ovarian = tested on: OVCAR-4 ovarian
OVCAR-5 ovarian = tested on: OVCAR-5 ovarian
OVCAR-8 ovarian = tested on: OVCAR-8 ovarian
PC-3 prostate = tested on: PC-3 prostate
RPMI-8226 leukemia = tested on: RPMI-8226 leukemia
RXF 393 renal = tested on: RXF 393 renal
SF-268 CNS = tested on: SF-268 CNS
SF-295 CNS = tested on: SF-295 CNS
SF-539 CNS = tested on: SF-539 CNS
SK-MEL-2 melanoma = tested on: SK-MEL-2 melanoma
SK-MEL-28 melanoma = tested on: SK-MEL-28 melanoma
SK-MEL-5 melanoma = tested on: SK-MEL-5 melanoma
SK-OV-3 ovarian = tested on: SK-OV-3 ovarian
SN12C renal = tested on: SN12C renal
SNB-19 CNS = tested on: SNB-19 CNS
SNB-75 CNS = tested on: SNB-75 CNS
SR leukemia = tested on: SR leukemia
SW-620 colon = tested on: SW-620 colon
T-47D breast = tested on: T-47D breast
TK-10 renal = tested on: TK-10 renal
U251 CNS = tested on: U251 CNS
UACC-257 melanoma = tested on: UACC-257 melanoma
UACC-62 melanoma = tested on: UACC-62 melanoma
UO-31 renal = tested on: UO-31 renal

N#Cc1nc(-c2ccccc2C(=O)O)oc1N
TGI (786-0 renal): > 100 µM
TGI (A498 renal): > 100 µM
TGI (A549 NSCLC): > 100 µM
TGI (ACHN renal): > 100 µM
TGI (CAKI-1 renal): > 100 µM
TGI (CCRF-CEM leukemia): > 100 µM
TGI (COLO 205 colon): > 100 µM
TGI (DU-145 prostate): > 100 µM
TGI (EKVX NSCLC): > 100 µM
TGI (HCC-2998 colon): > 100 µM
TGI (HCT-116 colon): > 100 µM
TGI (HCT-15 colon): > 100 µM
TGI (HL-60(TB) leukemia): > 100 µM
TGI (HOP-62 NSCLC): > 100 µM
TGI (HOP-92 NSCLC): > 100 µM
TGI (HS 578T breast): > 100 µM
TGI (HT29 colon): > 100 µM
TGI (IGROV1 ovarian): > 100 µM
TGI (K-562 leukemia): > 100 µM
TGI (KM12 colon): > 100 µM
TGI (LOX IMVI melanoma): > 100 µM
TGI (M14 melanoma): > 100 µM
TGI (MALME-3M melanoma): > 100 µM
TGI (MCF7 breast): > 100 µM
TGI (MDA-MB-231 breast): > 100 µM
TGI (MDA-MB-435): > 100 µM
TGI (MDA-N): > 100 µM
TGI (MOLT-4 leukemia): > 100 µM
TGI (NCI-H226 lung): > 100 µM
TGI (NCI-H23 lung): > 100 µM
TGI (NCI-H460 lung): > 100 µM
TGI (NCI-H522 lung): > 100 µM
TGI (NCI/ADR-RES ovarian): > 100 µM
TGI (OVCAR-3 ovarian): > 100 µM
TGI (OVCAR-4 ovarian): > 100 µM
TGI (OVCAR-5 ovarian): > 100 µM
TGI (OVCAR-8 ovarian): > 100 µM
TGI (PC-3 prostate): > 100 µM
TGI (RPMI-8226 leukemia): > 100 µM
TGI (RXF 393 renal): > 100 µM
TGI (SF-268 CNS): > 100 µM
TGI (SF-295 CNS): > 100 µM
TGI (SF-539 CNS): > 100 µM
TGI (SK-MEL-2 melanoma): > 100 µM
TGI (SK-MEL-28 melanoma): > 100 µM
TGI (SK-MEL-5 melanoma): > 100 µM
TGI (SK-OV-3 ovarian): > 100 µM
TGI (SN12C renal): > 100 µM
TGI (SNB-19 CNS): > 100 µM
TGI (SNB-75 CNS): > 100 µM
TGI (SR leukemia): > 100 µM
TGI (SW-620 colon): > 100 µM
TGI (T-47D breast): > 100 µM
TGI (TK-10 renal): > 100 µM
TGI (U251 CNS): > 100 µM
TGI (UACC-257 melanoma): > 100 µM
TGI (UACC-62 melanoma): > 100 µM
TGI (UO-31 renal): > 100 µM

C/C(O)=c1\cc(C#N)c(=C(C#N)C#N)nc1C
TGI (786-0 renal): > 100 µM
TGI (A498 renal): > 100 µM
TGI (A549 NSCLC): > 100 µM
TGI (ACHN renal): > 100 µM
TGI (CAKI-1 renal): > 100 µM
TGI (CCRF-CEM leukemia): > 100 µM
TGI (COLO 205 colon): > 100 µM
TGI (DU-145 prostate): > 100 µM
TGI (EKVX NSCLC): > 100 µM
TGI (HCC-2998 colon): > 100 µM
TGI (HCT-116 colon): > 100 µM
TGI (HCT-15 colon): > 100 µM
TGI (HL-60(TB) leukemia): > 100 µM
TGI (HOP-62 NSCLC): > 100 µM
TGI (HOP-92 NSCLC): > 100 µM
TGI (HS 578T breast): > 100 µM
TGI (HT29 colon): > 100 µM
TGI (IGROV1 ovarian): > 100 µM
TGI (K-562 leukemia): > 100 µM
TGI (KM12 colon): > 100 µM
TGI (LOX IMVI melanoma): > 100 µM
TGI (M14 melanoma): > 100 µM
TGI (MALME-3M melanoma): > 100 µM
TGI (MCF7 breast): > 100 µM
TGI (MDA-MB-231 breast): > 100 µM
TGI (MDA-MB-435): > 100 µM
TGI (MDA-N): > 100 µM
TGI (MOLT-4 leukemia): > 100 µM
TGI (NCI-H226 lung): > 100 µM
TGI (NCI-H23 lung): > 100 µM
TGI (NCI-H460 lung): > 100 µM
TGI (NCI-H522 lung): > 100 µM
TGI (NCI/ADR-RES ovarian): > 100 µM
TGI (OVCAR-4 ovarian): > 100 µM
TGI (OVCAR-5 ovarian): > 100 µM
TGI (OVCAR-8 ovarian): > 100 µM
TGI (PC-3 prostate): > 100 µM
TGI (RPMI-8226 leukemia): > 100 µM
TGI (RXF 393 renal): > 100 µM
TGI (SF-268 CNS): > 100 µM
TGI (SF-539 CNS): > 100 µM
TGI (SK-MEL-2 melanoma): > 100 µM
TGI (SK-MEL-28 melanoma): > 100 µM
TGI (SK-MEL-5 melanoma): > 100 µM
TGI (SN12C renal): > 100 µM
TGI (SNB-19 CNS): > 100 µM
TGI (SNB-75 CNS): > 100 µM
TGI (SR leukemia): > 100 µM
TGI (SW-620 colon): > 100 µM
TGI (T-47D breast): > 100 µM
TGI (U251 CNS): > 100 µM
TGI (UACC-62 melanoma): > 100 µM
TGI (UO-31 renal): > 100 µM

COC(=O)c1cc(CC2Cc3cc4c(cc3C2)CCC4)cc2c1CCC2
TGI (786-0 renal): > 100 µM
TGI (A498 renal): > 100 µM
TGI (A549 NSCLC): > 100 µM
TGI (ACHN renal): > 100 µM
TGI (CAKI-1 renal): > 100 µM
TGI (CCRF-CEM leukemia): > 100 µM
TGI (COLO 205 colon): > 100 µM
TGI (DU-145 prostate): > 100 µM
TGI (EKVX NSCLC): > 100 µM
TGI (HCC-2998 colon): > 100 µM
TGI (HCT-116 colon): > 100 µM
TGI (HCT-15 colon): > 100 µM
TGI (HL-60(TB) leukemia): > 100 µM
TGI (HOP-62 NSCLC): > 100 µM
TGI (HOP-92 NSCLC): > 100 µM
TGI (HS 578T breast): > 100 µM
TGI (HT29 colon): > 100 µM
TGI (IGROV1 ovarian): > 100 µM
TGI (K-562 leukemia): > 100 µM
TGI (KM12 colon): > 100 µM
TGI (LOX IMVI melanoma): > 100 µM
TGI (M14 melanoma): > 100 µM
TGI (MALME-3M melanoma): > 100 µM
TGI (MCF7 breast): > 100 µM
TGI (MDA-MB-231 breast): > 100 µM
TGI (MDA-MB-435): > 100 µM
TGI (MDA-N): > 100 µM
TGI (MOLT-4 leukemia): 55.7 µM
TGI (NCI-H226 lung): > 100 µM
TGI (NCI-H23 lung): > 100 µM
TGI (NCI-H460 lung): > 100 µM
TGI (NCI-H522 lung): > 100 µM
TGI (NCI/ADR-RES ovarian): > 100 µM
TGI (OVCAR-3 ovarian): > 100 µM
TGI (OVCAR-4 ovarian): > 100 µM
TGI (OVCAR-5 ovarian): > 100 µM
TGI (OVCAR-8 ovarian): > 100 µM
TGI (PC-3 prostate): > 100 µM
TGI (RPMI-8226 leukemia): > 100 µM
TGI (RXF 393 renal): > 100 µM
TGI (SF-268 CNS): > 100 µM
TGI (SF-295 CNS): > 100 µM
TGI (SF-539 CNS): > 100 µM
TGI (SK-MEL-2 melanoma): > 100 µM
TGI (SK-MEL-28 melanoma): > 100 µM
TGI (SK-MEL-5 melanoma): > 100 µM
TGI (SK-OV-3 ovarian): > 100 µM
TGI (SN12C renal): > 100 µM
TGI (SNB-19 CNS): > 100 µM
TGI (SNB-75 CNS): > 100 µM
TGI (SR leukemia): 94 µM
TGI (SW-620 colon): > 100 µM
TGI (T-47D breast): > 100 µM
TGI (TK-10 renal): > 100 µM
TGI (U251 CNS): > 100 µM
TGI (UACC-257 melanoma): > 100 µM
TGI (UO-31 renal): > 100 µM
